For one data set, the system named is benzodiazepine receptor. Put plainly: in vivo binding test (reduction of specific flunitrazepam binding in a living brain). Conditions: dose reducing specific binding of flunitrazepam to the benzodiazepine receptor in a living brain to 50% of the control value. From the text:
The ED50 in vivo value represents the dose of a test compound effecting a reduction in specific binding of flunitrazepam to the benzodiazepine receptor in a living brain to 50% of the control value.

The nature of data set [1]: chimney test (motor discoordination). It is filed as in vivo. Conditions: ip, higher ED50 is better, as it indicates lower activity in inducing motor discoordination. Here is the method:
The chimney test was performed according to the method of Poissier, Jr., et al. Med. Exp. 3: 81-84 (1960). The higher the ED50 value in the chimney test the better, since this indicates a lower activity in inducing motor discoordination.

The nature of another data set: bioavailability in rats. Conditions: rat, in vivo.

A value given as a limit tells only on which side of the number the result lay.

What is called TD50 is the 50% point of the dose-response relation for the toxic effect studied. A low value points to harm at a small dose. What is called bioavailability is the share of a dose that reaches the circulation, judged against a reference dose that is usually intravenous. Lower therefore signals poor availability. With `CCOC(=O)c1ncc2[nH]c3ccc(OCc4ccccc4)cc3c2c1COC` [A, 6-benzyloxy-4-methoxymethyl-beta-carboline-3-carboxylic acid ethyl ester], the “ED50 mg/kg in vivo” value in the data set with benzodiazepine receptor is given as 5.6 mg/kg. For the same molecule, the TD50 in data set [1] amounted to 12.1 mg/kg. Besides, the bioavailability in “bioavailability in rats” was 17%.
Consider `COCc1c(C(=O)OC(C)C)ncc2[nH]c3ccc(OCc4ccccc4)cc3c12` [B, 6-benzyloxy-4-methoxymethyl-beta-carboline-3-carboxylic acid ispropyl ester], for which the “ED50 mg/kg in vivo” value in the data set with benzodiazepine receptor amounted to 0.4 mg/kg. For the same molecule, the TD50 in data set [1] was over 50 mg/kg. In addition, the bioavailability in “bioavailability in rats” was determined as 32%.
